Measurements published in PubChem BioAssay (NCI).
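Results reflect a 48-hour exposure of cells in 96-well plates to compound at five concentrations. TGI denotes the concentration required for complete inhibition of growth.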

Legend:
Assay in all cases: DTP human tumour cell line panel, 48 h
HL-60(TB) leukemia = tested on: HL-60(TB) leukemia
K-562 leukemia = tested on: K-562 leukemia
OVCAR-3 ovarian = tested on: OVCAR-3 ovarian
TK-10 renal = tested on: TK-10 renal
T-47D breast = tested on: T-47D breast
IGROV1 ovarian = tested on: IGROV1 ovarian
PC-3 prostate = tested on: PC-3 prostate
SN12C renal = tested on: SN12C renal
MDA-N = tested on: MDA-N
HT29 colon = tested on: HT29 colon
CAKI-1 renal = tested on: CAKI-1 renal
SK-MEL-5 melanoma = tested on: SK-MEL-5 melanoma
CCRF-CEM leukemia = tested on: CCRF-CEM leukemia
SK-MEL-2 melanoma = tested on: SK-MEL-2 melanoma
SNB-75 CNS = tested on: SNB-75 CNS
MCF7 breast = tested on: MCF7 breast
SF-295 CNS = tested on: SF-295 CNS
MOLT-4 leukemia = tested on: MOLT-4 leukemia
UACC-257 melanoma = tested on: UACC-257 melanoma
U251 CNS = tested on: U251 CNS

Structure (SMILES) | TGI (HL-60(TB) leukemia) [µM] | TGI (K-562 leukemia) [µM] | TGI (OVCAR-3 ovarian) [µM] | TGI (TK-10 renal) [µM] | TGI (T-47D breast) [µM] | TGI (IGROV1 ovarian) [µM] | TGI (PC-3 prostate) [µM] | TGI (SN12C renal) [µM] | TGI (MDA-N) [µM] | TGI (HT29 colon) [µM] | TGI (CAKI-1 renal) [µM] | TGI (SK-MEL-5 melanoma) [µM] | TGI (CCRF-CEM leukemia) [µM] | TGI (SK-MEL-2 melanoma) [µM] | TGI (SNB-75 CNS) [µM] | TGI (MCF7 breast) [µM] | TGI (SF-295 CNS) [µM] | TGI (MOLT-4 leukemia) [µM] | TGI (UACC-257 melanoma) [µM] | TGI (U251 CNS) [µM]
Cc1ccc(Cl)c2c(=O)c3ccc(N)cc3sc12 | 20.4 | 48.6 | 47.7 | > 100 | 87.1 | 28.7 | 76.7 | 32.9 | > 100 | 38.5 | > 100 | 37.7 | 50.4 | 44.6 | 37.8 | 55.4 | 31.8 | 50 | 90.7 | –
COc1ccc2c(C(=O)c3cn(CCN4CCOCC4)c4ccccc34)cccc2c1 | 54.3 | > 100 | > 25.5 | > 100 | > 100 | > 100 | > 100 | > 100 | > 100 | > 100 | > 100 | > 100 | 85.5 | > 100 | > 100 | > 80.2 | > 54.8 | 64.4 | > 100 | > 100
CC(=O)OCC1OC(n2c(C)cc(C)c(C#N)c2=S)C(OC(C)=O)C(OC(C)=O)C1OC(C)=O (stereo not given) | > 100 | > 100 | > 100 | > 100 | > 100 | > 100 | > 100 | > 100 | > 100 | > 100 | > 100 | > 100 | > 100 | > 100 | > 100 | > 100 | > 100 | > 100 | > 100 | > 100
COc1cccc2nc3c(C(=O)NCCN(C)C)cccc3cc12 | 4.48 | 13.9 | 12.3 | 10.8 | 16.7 | 11 | 10.2 | 8.35 | 8.42 | 7.61 | 4.18 | 3.09 | 61.3 | 12.7 | 14.4 | 8 | 10.8 | 21.2 | 5.01 | 5.46
Cc1c2cccc-2c(OCCO)cc2c3ccccc3n(C)c12 | 7.19 | 21.4 | 5.56 | 23.4 | > 100 | 7.77 | 11.5 | 14.4 | 16.1 | 18.3 | 26.6 | 5.77 | 7.53 | 12.8 | 35.5 | 20.8 | 16.9 | 34.6 | 17.6 | 5.84
c1ccc2c(c1)SCCC2NC1=NCCO1 (stereo not given) | > 100 | > 100 | > 100 | > 100 | > 100 | > 100 | > 100 | > 100 | > 100 | > 100 | > 100 | > 100 | > 100 | > 100 | > 100 | > 100 | > 100 | > 100 | – | > 100
CCSC1=N/C(=C\c2ccc(N(C)C)cc2)C(Cl)=N1 | > 100 | – | > 100 | > 100 | > 100 | > 100 | > 100 | > 100 | > 100 | > 100 | > 100 | > 100 | > 100 | > 100 | > 100 | > 100 | > 100 | > 100 | > 100 | > 100
CCOC(=O)Cc1ccc(Nc2nc3ccccc3nc2C(=O)OCC)cc1 | > 100 | – | > 100 | > 100 | > 100 | > 100 | > 100 | > 100 | > 100 | > 100 | > 100 | > 100 | > 100 | > 100 | 38.3 | > 100 | > 100 | > 100 | > 100 | > 100
O=C1C=C(NCCOCCO)C(=O)c2c(O)ccc(O)c21 | 40.4 | 87.4 | 65.4 | > 100 | 59.8 | > 100 | > 100 | – | 31.3 | 42.2 | > 100 | 25.9 | 76.2 | 51.9 | > 100 | 40.1 | > 100 | 79.7 | 38.4 | 77.9
